The results in this text go back to patent US11161815B2, “Hydrocarbylsulfonyl-substituted pyridines and their use in the treatment of cancer” (Oblique Therapeutics AB, priority 2017, dated 2021).

A value given as a limit tells only on which side of the number the result lay.

In test [1] the test system is U-87 MG. In words: Cancer cell viability assay (MTT), U-87 MG. The test is classed as cell-based. The conditions noted are these: Homo sapiens, 72 hrs, 10% FBS media. As for the experimental part:
(§1) Breast cancer and glioblastoma cell lines were plated 4000 cells/well in 96-well plates in the presence of 10% FBS media. The following day cells were treated with various concentrations of the example compounds (0.1% DMSO final) and incubated for 72 hrs. After the incubation An MTT assay was performed to access cell viability. Percent of viability was determined using DMSO vehicle and no cell (blank) controls.

Test [2] addresses gluthathione reductase (GR) (Homo sapiens (Human), UniProt P00390). In words: Inhibition of recombinant GR (GSSG assay). The test is classed as biochemical. The conditions noted are these: 2 nM GR, 250 μM NADPH, 15 minutes incubation. The method, then: (§2) Small molecule inhibition of recombinant thioredoxin reductase 1 (TrxR1) and gluthathione reductase (GR) was examined in 96-well plate format. 30 nM TrxR1 was incubated in the presence of 250 μM NADPH, 0.1 mg/ml BSA, and various concentrations of compound (1% DMSO final) in 50 mM Tris (pH 7.5) and 2 mM EDTA buffer for 15 minutes. Following the incubation period, 2 mM DTNB was added to each well and the change in O.D. at 412 nm was followed. Percent activity was determined using DMSO vehicle and no TrxR1 (blank) controls. 2 nM GR was incubated in the presence of 250 μM NADPH, 0.1 mg/ml BSA, and various concentrations of compounds (1% DMSO final) in 50 mM Tris (pH 7.5) and 2 mM EDTA buffer for 15 minutes. Following the incubation period, 1 mM GSSG was added to each well and the change in O.D. at 340 nm was followed. Percent activity was determined using DMSO vehicle and no GR (blank) controls.

In test [3] the target is recombinant thioredoxin reductase 1 (TrxR1) (Homo sapiens (Human), UniProt Q16881). In words: Inhibition of recombinant TrxR1 (DTNB assay). The test is classed as biochemical. The conditions noted are these: 30 nM TrxR1, 250 μM NADPH, 15 minutes incubation, read-out: TrxR Assay IC50. As for the experimental part: as §2
Test [4] has as its system FaDu cells. In words: Head and neck cancer cell viability assay (Cell-Quanti Blue). The test is classed as cell-based. The conditions noted are these: Homo sapiens, 72 hrs, 10% FBS media containing 25 nM selenite. The method, then:
FaDu cells were plated 2000 cells/well in 96-well black optical plates in the presence of 10% FBS media containing 25 nM selenite. The following day cells were treated with various concentrations of the compound of Example 1 (0.1% DMSO final) and incubated for 72 hrs. After the incubation Cell-Quanti Blue reagent was added to each well and incubated for additional 3 hrs. Fluorescence was read ex:530 nm/em:590 nm, and percent of viability was determined using DMSO vehicle and no cell (blank) controls.

Test [5] relates to MDA-MB-231. Briefly: Cancer cell viability assay (MTT), MDA-MB-231. The test is classed as cell-based. The conditions noted are these: Homo sapiens, 72 hrs, 10% FBS media. The method, then:
as §1

For test [6], the system named is MDA-MB-231 cells. In words: Breast cancer cell viability assay (Alamar Blue). Format: cell-based. The note with it: Homo sapiens, 72 hrs, 10% FBS media containing 25 nM selenite. As for the experimental part: MDA-MB-231 cells were plated 2000 cells/well in 96-well black optical plates in the presence of 10% FBS media containing 25 nM selenite. The following day cells were treated with various concentrations of compounds (0.1% DMSO final) and incubated for 72 hrs. After the incubation Alamar Blue reagent was added to each well and incubated for additional 3 hrs. Fluorescence was read ex:530 nm/em:590 nm, and percent of viability was determined using DMSO vehicle and no cell (blank) controls.
In general terms: The colour change of resazurin is a common sign of viable cells or microbes.

Test [7] has as its system MDA-MB-468. Briefly: Cancer cell viability assay (MTT), MDA-MB-468. Format: cell-based. The conditions noted are these: Homo sapiens, 72 hrs, 10% FBS media. As for the experimental part:
as §1

Sequence of recombinant thioredoxin reductase 1 (TrxR1) (Q16881 151-649): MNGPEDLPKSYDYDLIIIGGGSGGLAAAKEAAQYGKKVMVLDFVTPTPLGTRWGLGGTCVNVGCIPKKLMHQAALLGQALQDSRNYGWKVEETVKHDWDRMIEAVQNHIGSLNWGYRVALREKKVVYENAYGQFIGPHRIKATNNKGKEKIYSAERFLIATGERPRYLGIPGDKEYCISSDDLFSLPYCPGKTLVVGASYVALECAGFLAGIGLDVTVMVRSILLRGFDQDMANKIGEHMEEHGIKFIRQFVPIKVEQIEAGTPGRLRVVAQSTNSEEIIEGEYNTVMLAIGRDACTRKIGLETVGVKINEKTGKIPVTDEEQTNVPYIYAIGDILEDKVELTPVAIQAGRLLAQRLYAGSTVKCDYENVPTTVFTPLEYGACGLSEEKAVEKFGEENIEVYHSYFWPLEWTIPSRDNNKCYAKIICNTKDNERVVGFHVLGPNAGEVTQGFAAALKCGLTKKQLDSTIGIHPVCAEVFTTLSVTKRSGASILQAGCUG
Sequence of gluthathione reductase (GR) (P00390 44-522): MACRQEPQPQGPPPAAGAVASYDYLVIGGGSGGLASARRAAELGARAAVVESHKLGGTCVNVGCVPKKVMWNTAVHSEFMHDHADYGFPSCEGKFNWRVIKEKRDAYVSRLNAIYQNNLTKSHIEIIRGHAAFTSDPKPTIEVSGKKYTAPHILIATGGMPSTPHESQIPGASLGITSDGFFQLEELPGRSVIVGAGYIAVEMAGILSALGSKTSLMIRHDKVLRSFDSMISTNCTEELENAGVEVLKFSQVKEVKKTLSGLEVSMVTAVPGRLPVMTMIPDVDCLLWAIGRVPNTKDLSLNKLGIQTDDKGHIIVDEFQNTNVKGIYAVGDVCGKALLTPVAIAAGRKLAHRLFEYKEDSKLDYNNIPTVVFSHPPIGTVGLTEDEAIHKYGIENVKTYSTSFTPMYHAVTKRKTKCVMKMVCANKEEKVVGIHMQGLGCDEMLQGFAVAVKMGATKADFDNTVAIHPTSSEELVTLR

Consider `COc1ccc([N+](=O)[O-])c(S(=O)(=O)Cc2ccccc2)n1` [Example 1, 2-Benzylsulfonyl-6-methoxy-3-nitropyridine], for which the IC50 (usually the midpoint of a concentration-inhibition curve) in test [1] is 6110 nM; in test [2] it was greater than 100000 nM; in test [3], 18.2 nM; in test [4], 280 nM; in test [5], 1800 nM; in test [6], 3810 nM. The same molecule displayed an IC50 in test [7] of 2890 nM.

As to `COc1ccc([N+](=O)[O-])c(S(=O)(=O)C2CCCC2)n1` [Example 2, 2-Cyclopentylsulfonyl-6-methoxy-3-nitropyridine], the results for the IC50 in test [2], in test [3] and in test [4] were greater than 100000 nM, 1030 nM and 3650 nM, respectively.

`CCCCCCS(=O)(=O)c1nc(OC)ccc1[N+](=O)[O-]` [Example 3, 2-Hexylsulfonyl-6-methoxy-3-nitropyridine]: the IC50 in test [2] was greater than 100000 nM; in test [3] it was 489 nM; in test [4] it was 450 nM.

In the case of `O=[N+]([O-])c1ccc(Cl)nc1S(=O)(=O)Cc1ccccc1` [Example 4, 2-Benzylsulfonyl-6-chloro-3-nitropyridine], the IC50 in test [2] came to 18100 nM; in test [3], 39.2 nM; in test [4] it was 660 nM.

For `O=[N+]([O-])c1ccc(Cl)nc1S(=O)(=O)C1CCCC1` [Example 5, 6-Chloro-2-(cyclopentylsulfonyl)-3-nitropyridine], the IC50 in test [2] is 60500 nM; in test [3] it was 181 nM; in test [4], 1010 nM.

Take `CCCCCCS(=O)(=O)c1nc(Cl)ccc1[N+](=O)[O-]` [Example 6, 6-Chloro-2-(hexylsulfonyl)-3-nitropyridine]: the IC50 in test [2] is 8760 nM; in test [3], 56 nM; in test [4], 710 nM.

As for `CN(C)c1ccc([N+](=O)[O-])c(S(=O)(=O)Cc2ccccc2)n1` [Example 7, 2-Benzylsulfonyl-6-dimethylamino-3-nitropyridine], the IC50 in test [4] stood at 2880 nM.

Regarding `CN(C)c1ccc([N+](=O)[O-])c(S(=O)(=O)C2CCCC2)n1` [Example 8, 2-Cyclopentylsulfonyl-6-dimethylamino-3-nitropyridine], the IC50 was greater than 100000 nM in test [2], 188 nM in test [3] and 6970 nM in test [4].

Consider `CCCCCCS(=O)(=O)c1nc(N(C)C)ccc1[N+](=O)[O-]` [Example 9, 6-Dimethylamino-2-hexylsulfonyl-3-nitropyridine], for which the IC50 in test [2] is greater than 100000 nM; in test [3], 333 nM; in test [4], 12700 nM.

Take `COc1ccc([N+](=O)[O-])c(S(=O)(=O)CCCO)n1` [Example 17, 3-((6-methoxy-3-nitropyridin-2-yl)sulfonyl)propan-1-ol]: the IC50 in test [1] was 19500 nM; in test [2], greater than 100000 nM; in test [3] it was 103 nM; in test [5] it was greater than 33000 nM; in test [6], 12500 nM; in test [7], 9770 nM.
